Measured values reported in ChEMBL document CHEMBL1139733, “Aminopyridine carboxamides as c-Jun N-terminal kinase inhibitors: targeting the gatekeeper residue and beyond” (Bioorg Med Chem Lett, 2006).

What was measured:
[1] = target: c-Jun N-terminal kinase, JNK (Homo sapiens, UniProt P45983+P53779+P45984); assay: Inhibition of PcJun phosphorylation in HepG2 cells; type: functional, cell-based
[2] = target: Mitogen-activated protein kinase 9 (Homo sapiens, UniProt P45984); assay: Inhibition of JNK2 by ATF2 phosphorylation assay; type: functional
Sequence of Mitogen-activated protein kinase 9 (P45984 whole entry): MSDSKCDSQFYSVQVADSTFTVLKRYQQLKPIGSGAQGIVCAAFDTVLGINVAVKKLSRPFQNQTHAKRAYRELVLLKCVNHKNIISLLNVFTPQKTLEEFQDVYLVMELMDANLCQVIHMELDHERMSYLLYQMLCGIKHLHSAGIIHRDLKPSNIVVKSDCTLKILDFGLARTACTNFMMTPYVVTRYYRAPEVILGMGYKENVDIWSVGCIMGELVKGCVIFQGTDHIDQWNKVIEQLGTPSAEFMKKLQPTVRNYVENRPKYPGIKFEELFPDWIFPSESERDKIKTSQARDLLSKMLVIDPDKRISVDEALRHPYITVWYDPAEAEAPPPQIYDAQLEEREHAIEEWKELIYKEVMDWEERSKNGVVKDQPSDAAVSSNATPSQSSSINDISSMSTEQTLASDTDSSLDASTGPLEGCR

[3] = target: Mitogen-activated protein kinase 8 (Homo sapiens, UniProt P45983); assay: Inhibition of JNK1 by ATF2 phosphorylation assay; type: functional
Sequence of Mitogen-activated protein kinase 8 (P45983 whole entry): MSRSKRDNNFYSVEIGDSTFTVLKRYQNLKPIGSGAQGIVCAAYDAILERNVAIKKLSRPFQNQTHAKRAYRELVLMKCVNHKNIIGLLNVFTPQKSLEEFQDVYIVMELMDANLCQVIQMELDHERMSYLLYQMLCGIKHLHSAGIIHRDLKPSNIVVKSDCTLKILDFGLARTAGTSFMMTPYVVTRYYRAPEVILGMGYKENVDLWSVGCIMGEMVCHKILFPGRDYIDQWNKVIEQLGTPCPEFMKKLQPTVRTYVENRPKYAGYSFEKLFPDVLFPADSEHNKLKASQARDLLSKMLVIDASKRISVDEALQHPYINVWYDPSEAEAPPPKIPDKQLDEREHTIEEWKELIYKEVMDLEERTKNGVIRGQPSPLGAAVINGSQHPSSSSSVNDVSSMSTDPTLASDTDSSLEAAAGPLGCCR

| SMILES | IC50 [1] | IC50 [2] | IC50 [3] |
| --- | --- | --- | --- |
| C=Cc1c(N)cc(C(=O)NCc2ccc(S(C)(=O)=O)cc2)nc1OCC | 4630 nM | 1460 nM | 1180 nM |
| CCOc1nc(C(=O)NCc2ccc(S(C)(=O)=O)cc2)cc(N)c1C#Cc1ccsc1 |  | > 10000 nM | 3430 nM |
| CS(=O)(=O)c1ccc(CNC(=O)c2cc(N)c(C#N)c(/C=C/C(=O)O)n2)cc1 | > 2500 nM | 430 nM | 300 nM |
| CS(=O)(=O)c1ccc(CNC(=O)c2cc(N)c(C#N)c(-c3ccsc3)n2)cc1 | 610 nM | 390 nM | 81 nM |
| CS(=O)(=O)c1ccc(CNC(=O)c2cc(N)c(C#N)c(-c3cccc(O)c3)n2)cc1 | 9400 nM | 240 nM | 200 nM |
| CC(C)Nc1nc(C(=O)NCc2ccc(S(C)(=O)=O)cc2)cc(N)c1C#N | 490 nM | 84 nM | 67 nM |
| CS(=O)(=O)c1ccc(CNC(=O)c2cc(N)c(C#N)c(NC3CCC3)n2)cc1 | 620 nM | 160 nM | 85 nM |
| CS(=O)(=O)c1ccc(CNC(=O)c2cc(N)c(C#N)c(NC3CCCC3)n2)cc1 | 480 nM | 290 nM | 96 nM |
| C[C@H](CO)Nc1nc(C(=O)NCc2ccc(S(C)(=O)=O)cc2)cc(N)c1C#N | > 10000 nM | 320 nM | 180 nM |
| CS(=O)(=O)c1ccc(CNC(=O)c2cc(N)c(C#N)c(/C=C/CCO)n2)cc1 | 5300 nM | 240 nM | 170 nM |
| CS(=O)(=O)c1ccc(CNC(=O)c2cc(N)c(C#N)c(-c3ccc(C(=O)O)s3)n2)cc1 | > 10000 nM | 160 nM | 250 nM |
| CC(C)COc1nc(C(=O)NCc2ccc(S(C)(=O)=O)cc2)cc(N)c1C#N | 700 nM | 370 nM | 88 nM |
| COCCNc1nc(C(=O)NCc2ccc(S(C)(=O)=O)cc2)cc(N)c1C#N | 5900 nM | 210 nM | 120 nM |
| CS(=O)(=O)c1ccc(CNC(=O)c2cc(N)c(C#N)c(/C=C/c3ccccc3)n2)cc1 | 350 nM | 1290 nM | 1450 nM |
| CC(C)[C@@H](CO)Nc1nc(C(=O)NCc2ccc(S(C)(=O)=O)cc2)cc(N)c1C#N |  | 1400 nM | 1500 nM |
| CCOc1nc(C(=O)NCc2ccc(S(C)(=O)=O)cc2)cc(N)c1C#CCO | 5700 nM |  | 1090 nM |
| CS(=O)(=O)c1ccc(CNC(=O)c2cc(N)c(C#N)c(NCCc3ccccc3)n2)cc1 | 2700 nM | 1000 nM | 260 nM |
| C/C=C/c1nc(C(=O)NCc2ccc(S(C)(=O)=O)cc2)cc(N)c1C#N | 890 nM | 230 nM | 48 nM |
| CCCNC(=O)c1c(N)cc(C(=O)NCc2ccc(S(C)(=O)=O)cc2)nc1OCC |  |  | 5250 nM |
| CS(=O)(=O)c1ccc(CNC(=O)c2cc(N)c(C#N)c(-c3cncnc3)n2)cc1 | > 10000 nM | 860 nM | 620 nM |
| CS(=O)(=O)c1ccc(CNC(=O)c2cc(N)c(C#N)c(-c3ccsc3CO)n2)cc1 | 10800 nM | 680 nM | 570 nM |
| CS(=O)(=O)c1ccc(CNC(=O)c2cc(N)c(C#N)c(NC3CC3)n2)cc1 | 1200 nM | 69 nM | 32 nM |
| CS(=O)(=O)c1ccc(CNC(=O)c2cc(N)c(C#N)c(NC(CO)CO)n2)cc1 | > 10000 nM | 100 nM | 76 nM |
| CS(=O)(=O)c1ccc(CNC(=O)c2cc(N)c(C#N)c(CCC(=O)O)n2)cc1 |  | 6920 nM | 1640 nM |
| CCCCC#Cc1c(N)cc(C(=O)NCc2ccc(S(C)(=O)=O)cc2)nc1OCC |  |  | > 10000 nM |
| CS(=O)(=O)c1ccc(CNC(=O)c2cc(N)c(C#N)c(NCc3ccccc3)n2)cc1 |  | 4700 nM | 820 nM |
| CS(=O)(=O)c1ccc(CNC(=O)c2cc(N)c(C#N)c(-c3ccoc3)n2)cc1 | 4300 nM | 530 nM | 270 nM |
| CC(=O)NCCNc1nc(C(=O)NCc2ccc(S(C)(=O)=O)cc2)cc(N)c1C#N | > 10000 nM | 81 nM | 59 nM |

| SMILES | IC50 [1] | IC50 [2] | IC50 [3] |
| --- | --- | --- | --- |
| CS(=O)(=O)c1ccc(CNC(=O)c2cc(N)c(C#N)c(-c3ccncc3)n2)cc1 |  | 660 nM | 530 nM |
| CS(=O)(=O)c1ccc(CNC(=O)c2cc(N)c(C#N)c(NCCNC(N)=O)n2)cc1 | > 10000 nM |  | 93 nM |
| CS(=O)(=O)c1ccc(CNC(=O)c2cc(N)c(C#N)c(NCCO)n2)cc1 | > 10000 nM | 150 nM | 93 nM |
| CS(=O)(=O)c1ccc(CNC(=O)c2cc(N)c(C#N)c(NCCN)n2)cc1 |  |  | 1600 nM |
| C[C@@H](CO)Nc1nc(C(=O)NCc2ccc(S(C)(=O)=O)cc2)cc(N)c1C#N | 2600 nM | 30 nM | 22 nM |
| CS(=O)(=O)c1ccc(CNC(=O)c2cc(N)c(C#N)c(-c3cccc(Cl)c3)n2)cc1 | 1200 nM | 840 nM | 1180 nM |
| C#C/C=C/c1c(N)cc(C(=O)NCc2ccc(S(C)(=O)=O)cc2)nc1OCC | 1400 nM | 300 nM | 79 nM |
| CS(=O)(=O)c1ccc(CNC(=O)c2cc(N)c(C#N)c(-c3ccsc3CNCc3ccccc3)n2)cc1 | 8010 nM |  | 1990 nM |
| CCOc1nc(C(=O)NCc2ccc(S(C)(=O)=O)cc2)cc(N)c1/C=C/c1ccccc1 | 6920 nM | 4130 nM | 2430 nM |
| CS(=O)(=O)c1ccc(CNC(=O)c2cc(N)c(C#N)c(NCCC(N)=O)n2)cc1 | > 10000 nM | 87 nM | 66 nM |
| CN(C)CCNc1nc(C(=O)NCc2ccc(S(C)(=O)=O)cc2)cc(N)c1C#N |  | 9200 nM | 7300 nM |
| CCOc1nc(C(=O)NCc2ccc(S(C)(=O)=O)cc2)cc(N)c1C#C/C=C/CO | 5240 nM | 4320 nM | 1550 nM |
| C/C=C\c1nc(C(=O)NCc2ccc(S(C)(=O)=O)cc2)cc(N)c1C#N | 5500 nM | 260 nM | 150 nM |
| CS(=O)(=O)c1ccc(CNC(=O)c2cc(N)c(C#N)c(OCC3CCCC3)n2)cc1 | 490 nM | 610 nM | 390 nM |
| CCOc1nc(C(=O)NCc2ccc(S(C)(=O)=O)cc2)cc(N)c1/C=C/C#N | 807 nM | 1790 nM | 410 nM |
| C#Cc1c(N)cc(C(=O)NCc2ccc(S(C)(=O)=O)cc2)nc1OCC | 1890 nM | 300 nM | 350 nM |
| COc1cccc(-c2nc(C(=O)NCc3ccc(S(C)(=O)=O)cc3)cc(N)c2C#N)c1 | 1800 nM | 600 nM | 430 nM |
| CCOc1nc(C(=O)NCc2ccc(S(C)(=O)=O)cc2)cc(N)c1C(N)=O | 7540 nM | 969 nM | 318 nM |
| CC(C)NC(=O)c1nc(C(=O)NCc2ccc(S(C)(=O)=O)cc2)cc(N)c1C#N | 2900 nM | 120 nM | 430 nM |
| CCOc1nc(C(=O)NCc2ccc(S(C)(=O)=O)cc2)cc(N)c1C#CCCO | 7360 nM | 4610 nM | 2240 nM |
| CC(C)Oc1nc(C(=O)NCc2ccc(S(C)(=O)=O)cc2)cc(N)c1C#N | 250 nM | 38 nM | 15 nM |
| CS(=O)(=O)c1ccc(CNC(=O)c2cc(N)c(C#N)c(-c3cccc(S(C)(=O)=O)c3)n2)cc1 | 10500 nM | 97 nM | 43 nM |
| CS(=O)(=O)c1ccc(CNC(=O)c2cc(N)c(C#N)c(-c3cccnc3)n2)cc1 | 7300 nM | 340 nM | 320 nM |
| CS(=O)(=O)c1ccc(CNC(=O)c2cc(N)c(C#N)c(OCC3CC3)n2)cc1 | 560 nM | 47 nM | 23 nM |
| COc1ccc(Oc2nc(C(=O)NCc3ccc(S(C)(=O)=O)cc3)cc(N)c2C#N)cc1 |  | 450 nM | 420 nM |
| CCOc1nc(C(=O)NCc2ccc(S(C)(=O)=O)cc2)cc(N)c1/C=C/C(C)(C)C | > 10000 nM | 4160 nM | 2930 nM |
| CS(=O)(=O)c1ccc(CNC(=O)c2cc(N)c(C#N)c(NCCCO)n2)cc1 | 8300 nM | 180 nM | 54 nM |
